The values below come from the Deep4Chem optical property database.

This data set can be described thus: solvent given as SMILES.
Setting [1] is: in c1ccc2c(c1)c1ccccc1n2-c1ccc(-c2ccc(-n3c4ccccc4c4ccccc43)cc2)cc1.

With `CCCCCCCCCCCCN1C(=O)c2c(c3ccc4cc(-c5ccc(-c6ccccc6)cc5)c(OC)cc4c3c3c2ccc2cc(-c4ccc(-c5ccccc5)cc4)c(OC)cc23)C1=O`, the emission maximum (in ClCCl) is on record as 527 nm.

In turn, `C[C@]12SC(=O)C=C1c1nc(-c3ccccc3O)[nH]c1C1=CC(=O)S[C@@]12C` came in with an emission maximum (in CC#N) of 407 nm.

As to `O=C(c1ccc(-n2c3ccc(-c4ccccc4)cc3c3cc(-c4ccccc4)ccc32)cc1)c1ccc(-n2c3ccc(-c4ccccc4)cc3c3cc(-c4ccccc4)ccc32)cc1`, the emission maximum (in Cc1ccccc1) was determined as 438 nm.

For `O=C1c2ccc(N(c3ccccc3)c3ccccc3)cc2C(=O)c2ccc(N(c3ccccc3)c3ccccc3)cc21`, the emission maximum (in Cc1ccccc1) came to 601 nm and the emission maximum under setting [1] is on record as 593 nm.

As to `COC(=O)C[C@H](Cc1c[nH]c2ccccc12)NC(=O)[C@H](CC(=O)N[C@@H](CC1=CCc2ccccc21)C(=O)OC)NC(=O)OC(C)(C)C`, the emission maximum turned out to be 332 nm (in CC#N), 326 nm (in CCOC(C)=O) and 337 nm (in CO).

`F[B-]1(F)n2c(ccc2N2CCOCC2)C(c2ccccc2)=C2C=CC(N3CCOCC3)=[N+]21`: the emission maximum by setting is: (in CC#N) 600 nm; (in CCCCCC) 595 nm; (in CCOC(C)=O) 597 nm; (in CO) 594 nm; (in ClCCl) 598 nm.

As to `Cc1ccccc1N1c2c(sc3ccccc23)Sc2sc3ccccc3c21`, the emission maximum (in ClCCl) is given as 583 nm.

With `O=c1c2cc(C#Cc3ccccc3)ccc2nc2ccc(C#Cc3ccccc3)cn12`, the emission maximum (in ClCCl) is recorded as 478 nm.

For `c1ccc(N(c2ccccc2)c2ccc(-n3ccc4cc(-c5ccc6c(c5)C(c5ccccc5)(c5ccccc5)c5ccccc5-6)ccc43)cc2)cc1`, where the note is “in ClCCl”, the emission maximum turned out to be 380 nm.

On to `CCCCOC(=O)/C(C#N)=C1\C(=CC2=[N+](C)c3ccccc3C2(C)C)C([O-])=C1C=C1N(C)c2ccccc2C1(C)C`, for which the emission maximum (in ClC(Cl)Cl) is 708 nm.

Consider `CN(C)c1ccc(-c2nc(-c3ccccc3)n3ccccc23)cc1`, for which the emission maximum (in ClC(Cl)Cl) was found to be 524 nm.

`Cc1cc(C)c(B2c3cc(C(C)(C)C)ccc3-c3cc4ccccc4c4cc(C(C)(C)C)cc2c34)c(C)c1` showed an emission maximum (in C1CCCCC1) of 420 nm.

`CC(C)(C)c1ccc(C2=C(c3ccc(C(C)(C)C)cc3)C(c3ccc(C(C)(C)C)cc3)=[N+]3C2=C(c2ccccc2)c2c(-c4ccc(C(C)(C)C)cc4)c(-c4ccc(C(C)(C)C)cc4)c(-c4ccc(C(C)(C)C)cc4)n2[B-]3(F)F)cc1` showed an emission maximum (in C1CCCCC1) of 634 nm; an emission maximum (in C1CCOC1) of 637 nm; an emission maximum (in CC#N) of 629 nm; an emission maximum (in Cc1ccccc1) of 639 nm; an emission maximum (in ClCCl) of 636 nm.

`Cc1ccc2c(c1)n(C)c(-c1ccc(-c3ccc(-c4ccc(-c5n(C)c6cc(C)ccc6[n+]5C)cc4)cc3)cc1)[n+]2C` came in with an emission maximum (in O) of 397 nm.

`COc1ccc(C2=C(c3ccc(OC)cc3)[Si](c3ccccc3)(c3ccccc3)c3ccccc32)cc1`: the emission maximum (in C1CCOC1) worked out at 457 nm.

`CCCCn1c(-c2ccc(-c3nnc(-c4ccc5ccccc5c4)o3)cc2)nc(-c2ccccc2)c1-c1ccccc1`: the emission maximum (in ClCCl) turned out to be 445 nm.

Consider `COC(=O)[C@H](Cc1ccccc1)Nc1c(C(C)=O)c(=O)oc2cc(N(C)C)ccc12`, for which the emission maximum (in ClCCl) is listed as 449 nm.

For `CN(C)c1ccc(/C=C/c2nc3cc(Br)ccc3nc2-c2ccccc2)cc1`, the emission maximum by setting is: (in C1COCCO1) 555 nm; (in CC#N) 643 nm; (in ClCCl) 601 nm.

For the setting “in O=P(c1ccccc1)(c1ccccc1)c1ccccc1Oc1ccccc1P(=O)(c1ccccc1)c1ccccc1”, `c1ccc(-c2nc(-c3ccccc3)nc(-c3ccc(N4c5ccccc5C(c5ccccc5)(c5ccccc5)c5ccccc54)cc3)n2)cc1` returned an emission maximum of 472.98 nm.

With `COc1ccc(-c2nc3c([nH]2)=C2C=C(Cl)S[C@@]2(C)[C@]2(C)SC(Cl)=CC=32)cc1`, the emission maximum (in CC#N) was found to be 378 nm.

Take `CCCCCCOc1cc(N(CC)CC)ccc1/C=C(\C#N)c1ccc(/C=C/C(=C(C#N)C#N)c2ccc(N(c3ccccc3)c3ccccc3)cc2)s1`: where the note is “in ClCCl”, the emission maximum is reported as 750 nm.

Molecule `S=c1[nH]nc(-c2ccc(/C=C/c3ccc(-c4n[nH]c(=S)o4)cc3)cc2)o1` returned an emission maximum (in CN(C)C=O) of 401 nm.

`C[P+]1(c2ccccc2)c2ccccc2-c2sc3ccccc3c21` (configuration not stated): the emission maximum is recorded as 442 nm (in CC#N), 442 nm (in CCO) and 445 nm (in ClCCl).

`COc1cccc(C2=c3c(c4ccc(C(C)(C)C)cc4c4cc(C(C)(C)C)ccc34)=[N+]3C2=C(c2ccccc2)c2c(-c4cccc(OC)c4)c4c5ccc(C(C)(C)C)cc5c5cc(C(C)(C)C)ccc5c4n2[B-]3(F)F)c1` showed an emission maximum (in C1CCCCC1) of 727 nm; an emission maximum (in C1CCOC1) of 737 nm; an emission maximum (in CC#N) of 721 nm; an emission maximum (in Cc1ccccc1) of 730 nm; an emission maximum (in ClCCl) of 737 nm.

`CC(NC(=O)OC(C)(C)C)C(=O)OCc1ccc2c3cccc4cccc(c5cccc1c52)c43` (configuration not stated) registered an emission maximum (in CCO) of 443 nm.

The molecule `CCCCOc1ccc(-c2cc(-c3ccc(OCCCC)cc3)c3ccc4c(-c5ccc(OCCCC)cc5)cc(-c5ccc(OCCCC)cc5)c5ccc2c3c54)cc1` returned an emission maximum (in ClC(Cl)Cl) of 433 nm.

Turning to `COCCOCCOCCOc1cc(C=O)c(OCCOCCOCCOC)cc1C=O`, the emission maximum is, setting by setting: (in CC(C)(C)O) 478 nm; (in CC(C)CO) 479 nm; (in CC(C)O) 481 nm; (in CCCCO) 472 nm; (in CCCO) 471 nm; (in CCO) 465 nm. The emission maximum (in CN(C)C=O) is 464 nm; the emission maximum (in CNC=O) is recorded as 450 nm; the emission maximum (in CO) stood at 467 nm; the emission maximum (in NC=O) worked out at 458 nm; the emission maximum (in O) is recorded as 495 nm.

As to `CNc1ncc2nc(C(=O)OC)n(Cc3ccccc3)c2n1`, the emission maximum (in C1COCCO1) was 405 nm, the emission maximum (in CC#N) is given as 413 nm, the emission maximum (in CO) is given as 429 nm and the emission maximum (in ClCCl) is given as 403 nm.

In the case of `c1ccc(-c2nc3c(c4c2-c2ccccc2CC4)-c2ccccc2CC3)cc1`, the emission maximum runs as follows: (in C1CCOC1) 362 nm; (in CC#N) 360 nm; (in CCCCCC) 363 nm; (in CCOC(C)=O) 359 nm; (in CO) 362 nm; (in CS(C)=O) 360 nm. This molecule also registered an emission maximum (in Cc1ccccc1) of 361 nm and an emission maximum (in ClCCl) of 361 nm.

`CCCCCCCCCCCCOc1cc2cc(N(C)C)ccc2cc1C=O`: the emission maximum runs as follows: (in C1CCOC1) 448 nm; (in CC#N) 485 nm; (in CCCCCC) 415 nm; (in CCO) 521 nm; (in CCOC(C)=O) 450 nm; (in CS(C)=O) 494 nm. In addition, the emission maximum (in ClCCl) worked out at 469 nm and the emission maximum (in O) amounted to 504 nm.

On to `N#Cc1ccc(-c2nc(-c3ccccc3)c3ccccn23)cc1`, for which the emission maximum runs as follows: (in C1CCCCC1) 444 nm; (in CC#N) 453 nm; (in CO) 487 nm; (in ClCCl) 477 nm; (in O) 470 nm.

As to `CC1(C)c2ccccc2N(c2ccc3c(c2)c2ccccc2c2nc4ccccc4nc32)c2ccccc21`, the emission maximum runs as follows: (in Cc1ccccc1) 541 nm; (in c1cc(-c2cccc(-n3c4ccccc4c4ccccc43)c2)cc(-n2c3ccccc3c3ccccc32)c1) 549 nm.

In the case of `COC1(OC)C2(Cl)c3nc4cc(-c5cccs5)ccc4nc3C1(Cl)C1C[C@H]3[C@@H](CC12)C1(Cl)c2nc4ccc(-c5cccs5)cc4nc2C3(Cl)C1(OC)OC` (some centres not stated), the emission maximum runs as follows: (in CC#N) 461 nm; (in CCCCCC) 412 nm; (in CCOC(C)=O) 439 nm; (in CO) 491 nm; (in Cc1ccccc1) 427 nm; (in ClC(Cl)Cl) 441 nm. Moreover, the emission maximum (in ClCCl) is given as 445 nm.

As to `CCCCCCN1C(=O)C(c2ccc(-n3c4ccccc4c4ccccc43)cc2)=C(c2ccc(-n3c4ccccc4c4ccccc43)cc2)C1=O`, the emission maximum runs as follows: (in ClC(Cl)Cl) 626 nm; under setting [1], 591 nm.

`c1ccc(-c2cnc3nn4ccccc4c3n2)cc1` displayed an emission maximum (in C1CCOC1) of 449 nm.

For the molecule `COc1ccc(C2=CC(c3ccccc3)=C(c3ccccc3)C2)c2ccccc12`, the emission maximum (in ClCCl) turned out to be 479 nm.

On to `CCCCCCCCCCCCC(CCCCCCCCCC)Cn1c2cc(/C=C/C=C/c3nc4ccccc4s3)c3cccc4c5cccc6c(/C=C/C=C/c7nc8ccccc8s7)cc1c(c65)c2c34` (configuration not stated), for which the emission maximum reads like this: (in C1CCCCC1) 588 nm; (in CC#N) 608 nm; (in Cc1ccccc1) 604 nm; (in ClCCl) 612 nm.

For the molecule `Cc1cc(C)c(C2=C3C=CC(c4ccc5c(ccc6ccccc65)c4)=[N+]3[B-](F)(F)n3c2ccc3-c2ccc3c(ccc4ccccc43)c2)c(C)c1`, the emission maximum (in ClC(Cl)Cl) is on record as 624 nm.

`COc1ccc(-c2c3ccccc3c(-c3ccc(OC)cc3)c3ccccc23)cc1` displayed an emission maximum (in ClCCl) of 427 nm.

In turn, `CCCCCCn1c2ccccc2c2cc3c4cc5c6ccccc6n(CCCCCC)c5cc4c4cc5c(C)cc(=O)oc5cc4c3cc21` displayed an emission maximum (in ClC(Cl)Cl) of 415 nm.

Molecule `Cc1ccc(-n2c(-c3ccccc3N)nc3c4ccccc4c4ccccc4c32)cc1` showed an emission maximum (in Cc1ccccc1) of 396 nm.

`Oc1ccccc1/C=N/CC/N=C/c1ccccc1O` came in with an emission maximum (in CC#N) of 461 nm.

Molecule `O=C(O)C1=CC(=C/C=[N+]2/c3cc(O)c(C[C@@H]4O[C@H](CO)[C@@H](O)C(O)[C@H]4O)cc3C[C@H]2C(=O)O)C=C(C(=O)O)N1` (some centres not stated) showed an emission maximum (in CO) of 588 nm, an emission maximum (in O) of 620 nm, an emission maximum (in OCCO) of 594 nm and an emission maximum (in [2H]O[2H]) of 620 nm.
